≈ marks a conversion by molar mass, not a printed value. Where two headings read alike, the source gives them in different places.
How the values were obtained:
Staphyloccus aureus X1.1 = assay: MIC, standard agar-dilution assay (Table IX); assay type: cell-based, Staphylococcus aureus; details: Staphylococcus aureus, read-out: MIC
[1] = system: Staphylococcus aureus V41; assay: MIC, standard agar-dilution assay (Table IX); assay type: cell-based; details: Staphylococcus aureus V41, Penicillin-resistant strain, read-out: MIC
[2] = system: Staphylococcus aureus X400; assay: MIC, standard agar-dilution assay (Table IX); assay type: cell-based; details: Staphylococcus aureus X400, Methicillin-resistant strain, read-out: MIC
[3] = system: Staphylococcus aureus S13E; assay: MIC, standard agar-dilution assay (Table IX); assay type: cell-based; details: Staphylococcus aureus, S13E
[4] = system: Staphylococcus epidermidis EPI1; assay: MIC, standard agar-dilution assay (Table IX); assay type: cell-based; details: Staphylococcus epidermidis EPI1; agar-dilution; read-out: MIC
[5] = system: Staphylococcus epidermidis 222; assay: MIC, standard agar-dilution assay (Table IX); assay type: cell-based; details: read-out: MIC
[6] = system: Streptococcus pyogenes C203; assay: MIC, standard agar-dilution assay (Table IX); assay type: cell-based; details: read-out: MIC
[7] = system: Streptococcus pneumoniae Park I; assay: MIC, standard agar-dilution assay (Table IX); assay type: cell-based; details: Streptococcus pneumoniae Park I; agar-dilution; read-out: MIC
[8] = system: Streptococcus Group D X66; assay: MIC, standard agar-dilution assay (Table IX); assay type: cell-based; details: read-out: MIC
[9] = system: Streptococcus Group D 2041; assay: MIC, standard agar-dilution assay (Table IX); assay type: cell-based; details: GROUPD2041, read-out: MIC
[10] = system: Haemophilus influenzae C.L.; assay: MIC, standard agar-dilution assay (Table IX); assay type: cell-based; details: Ampicillin-sensitive strain, read-out: MIC
[11] = system: Haemophilus influenzae 76; assay: MIC, standard agar-dilution assay (Table IX); assay type: cell-based; details: Haemophilus influenzae 76, Ampicillin-resistant strain, read-out: MIC
Escherichia coli N10 = assay: MIC, standard agar-dilution assay (Table IX); assay type: cell-based; details: read-out: MIC
Escherichia coli EC14 = assay: MIC, standard agar-dilution assay (Table IX); assay type: cell-based; details: read-out: MIC
Escherichia coli TEM = assay: MIC, standard agar-dilution assay (Table IX); assay type: cell-based; details: read-out: MIC
Klebsiella X26 = assay: MIC, standard agar-dilution assay (Table IX); assay type: cell-based; details: read-out: MIC
[12] = system: Mycoplasma gallisepticum 29C; assay: MIC, broth-dilution microtiter test (Table X); assay type: cell-based; details: Mycoplasmoides gallisepticum, read-out: MIC
Text: (§1) The MIC's in Table X were obtained using conventional broth-dilution microtiter tests.

[13] = system: Mycoplasma hyopneumoniae S5972; assay: MIC, broth-dilution microtiter test (Table X); assay type: cell-based; details: Mesomycoplasma hyopneumoniae, read-out: MIC
Text: as §1

Mycoplasma hyorhinis 29E = assay: MIC, broth-dilution microtiter test (Table X); assay type: cell-based; details: read-out: MIC
Text: as §1

Mycoplasma synoviae 40A = assay: MIC, broth-dilution microtiter test (Table X); assay type: cell-based; details: Mycoplasmopsis synoviae, read-out: MIC
Text: as §1

[14] = system: Pasteurella hemolytica 22C; assay: MIC, broth-dilution microtiter test (Table X); assay type: cell-based; details: read-out: MIC
Text: as §1

[15] = system: Pasteurella multocida 17E; assay: MIC, broth-dilution microtiter test (Table X); assay type: cell-based; details: Bovine isolate, read-out: MIC
Text: as §1

[16] = system: Pasteurella multocida 60A; assay: MIC, broth-dilution microtiter test (Table X); assay type: cell-based; details: Avian isolate, read-out: MIC
Text: as §1

Staphylococcus aureus = assay: MIC, broth-dilution microtiter test (Table X); assay type: cell-based; details: read-out: MIC
Text: as §1

Streptococcus sp. 19F = assay: MIC, broth-dilution microtiter test (Table X); assay type: cell-based; details: read-out: MIC
Text: as §1

[17] = system: Streptococcus pyogenes C203; assay: ED50 in mice experimentally infected with S. pyogenes C203 (Table XI); assay type: in vivo; details: Streptococcus pyogenes, doses given 1 and 4 hours postinfection, read-out: ED50
Method: The C-20 modified derivatives of this invention have shown in vivo antimicrobial activity against experimentally-induced infections in laboratory animals. When two doses of test compound were administered to mice experimentally infected with S. pyogenes C203, the activity observed was measured as an ED50 value [effective dose in mg/kg to protect 50% of the test animals: see Warren Wick, et al., J. Bacteriol. 81, 233-235 (1961)].
^a mg/kg × 2; doses given 1 and 4 hours postinfection

[18] = Titratable groups in 66% aqueous DMF (Tables XIV-XVI); assay type: physicochemical
Text: ^c Run in 66% aqueous DMF
^d Run in 66% aqueous DMF

[19] = 66% aqueous DMF, read-out: Titratable groups
[20] = 66% aqueous DMF, read-out: Titratable groups (first value)
[21] = Titratable groups (first value)

Compound	MIC (Staphyloccus aureus X1.1) [µg/mL]	MIC [1] [µg/mL]	MIC [2] [µg/mL]	MIC [3] [µg/mL]	MIC [4] [µg/mL]	MIC [5] [µg/mL]	MIC [6] [µg/mL]	MIC [7] [µg/mL]	MIC [8] [µg/mL]	MIC [9] [µg/mL]	MIC [10] [µg/mL]	MIC [11] [µg/mL]	MIC (Escherichia coli N10) [µg/mL]	MIC (Escherichia coli EC14) [µg/mL]	MIC (Escherichia coli TEM) [µg/mL]	MIC (Klebsiella X26) [µg/mL]	MIC [12] [µg/mL]	MIC [13] [µg/mL]	MIC (Mycoplasma hyorhinis 29E) [µg/mL]	MIC (Mycoplasma synoviae 40A) [µg/mL]	also measured
CCC1OC(=O)CC(O)C(C)C(OC2OC(C)C(OC3CC(C)(O)C(O)C(C)O3)C(N(C)C)C2O)C(CCN2CCCCCC2)CC(C)C(=O)C=CC(C)=CC1COC1OC(C)C(O)C(O)C1OC (centres unmarked) [Compound M3, 20-DH-DO-20-(hexahydroazepin-1-yl)macrocin]	4 (≈ 4.06 µM)	8 (≈ 8.12 µM)	32 (≈ 32.5 µM)	8 (≈ 8.12 µM)	8 (≈ 8.12 µM)	2 (≈ 2.03 µM)	4 (≈ 4.06 µM)	2 (≈ 2.03 µM)	> 128	> 128	128 (≈ 130 µM)	128 (≈ 130 µM)	> 128	> 128	> 128	> 128	6.25 (≈ 6.34 µM)	12.5 (≈ 12.7 µM)	> 50	25 (≈ 25.4 µM)	MIC [14]: 50 µg/mL (≈ 50.7 µM); MIC [15]: > 50 µg/mL; MIC [16]: > 50 µg/mL; MIC (Staphylococcus aureus): 12.5 µg/mL (≈ 12.7 µM); MIC (Streptococcus sp. 19F): 50 µg/mL (≈ 50.7 µM); ED50 ([17]; C203, Oral): > 100 mg/kg; ED50 ([17]; C203, sc, Subcutaneous): > 10 mg/kg; pKa [18, 19]: 9.4; pKa [18, 20]: 6.91
CCC1OC(=O)CC(O)C(C)C(OC2OC(C)C(O)C(N(C)C)C2O)C(CCN2CCC(N3CCCCC3)CC2)CC(C)C(=O)C=CC(C)=CC1COC1OC(C)C(O)C(OC)C1OC (centres unmarked) [Compound D13, 20-DH-DO-20-[(4-piperidino)piperidin-1-yl]desmycosin]	0.5 (≈ 0.541 µM)	1 (≈ 1.08 µM)	1 (≈ 1.08 µM)	1 (≈ 1.08 µM)	1 (≈ 1.08 µM)	0.25 (≈ 0.27 µM)	2 (≈ 2.16 µM)	2 (≈ 2.16 µM)	2 (≈ 2.16 µM)	2 (≈ 2.16 µM)	16 (≈ 17.3 µM)	8 (≈ 8.66 µM)	> 128	> 128	> 128	16 (≈ 17.3 µM)	6.25 (≈ 6.76 µM)	3.12 (≈ 3.38 µM)	50 (≈ 54.1 µM)	1.56 (≈ 1.69 µM)	MIC [14]: 12.5 µg/mL (≈ 13.5 µM); MIC [15]: 12.5 µg/mL (≈ 13.5 µM); MIC [16]: 12.5 µg/mL (≈ 13.5 µM); MIC (Staphylococcus aureus): 3.12 µg/mL (≈ 3.38 µM); MIC (Streptococcus sp. 19F): 6.25 µg/mL (≈ 6.76 µM); pKa ([18]; Titratable groups): 9.2; pKa [18, 21]: 6
CCC1OC(=O)CC(O)C(C)C(OC2OC(C)C(OC3CC(C)(O)C(O)C(C)O3)C(N(C)C)C2O)C(CCN2CCCCCCC2)CC(C)C(=O)C=CC(C)=CC1COC1OC(C)C(O)C(O)C1OC (centres unmarked) [Compound M4, 20-DH-DO-20-(octahydroazocin-1-yl)macrocin]	4 (≈ 4 µM)	4 (≈ 4 µM)	8 (≈ 8.01 µM)	4 (≈ 4 µM)	4 (≈ 4 µM)	2 (≈ 2 µM)	2 (≈ 2 µM)	32 (≈ 32 µM)	> 128	> 128	128 (≈ 128 µM)	128 (≈ 128 µM)	> 128	> 128	> 128	> 128	3.12 (≈ 3.12 µM)	6.25 (≈ 6.25 µM)	> 50	6.25 (≈ 6.25 µM)	MIC [14]: > 50 µg/mL; MIC [15]: > 50 µg/mL; MIC [16]: > 50 µg/mL; MIC (Staphylococcus aureus): 12.5 µg/mL (≈ 12.5 µM); MIC (Streptococcus sp. 19F): 12.5 µg/mL (≈ 12.5 µM); pKa [18, 19]: 9.25; pKa [18, 20]: 6.9
CCC1OC(=O)CC(O)C(C)C(OC2OC(C)C(O)C(N(C)C)C2O)C(CCN2CCCCCC2)CC(C)C(=O)C=CC(C)=CC1COC1OC(C)C(O)C(O)C1OC (centres unmarked) [Compound L4, 20-DH-DO-20-(hexahydroazepin-1-yl)lactenocin]	2 (≈ 2.38 µM)	2 (≈ 2.38 µM)	2 (≈ 2.38 µM)	2 (≈ 2.38 µM)	2 (≈ 2.38 µM)	1 (≈ 1.19 µM)	1 (≈ 1.19 µM)	8 (≈ 9.51 µM)	32 (≈ 38 µM)	16 (≈ 19 µM)	16 (≈ 19 µM)	16 (≈ 19 µM)	> 128	> 128	> 128	16 (≈ 19 µM)	12.5 (≈ 14.9 µM)	1.56 (≈ 1.85 µM)	50 (≈ 59.4 µM)	1.56 (≈ 1.85 µM)	MIC [14]: 25 µg/mL (≈ 29.7 µM); MIC [15]: 12.5 µg/mL (≈ 14.9 µM); MIC [16]: 12.5 µg/mL (≈ 14.9 µM); MIC (Staphylococcus aureus): 6.25 µg/mL (≈ 7.43 µM); MIC (Streptococcus sp. 19F): 6.25 µg/mL (≈ 7.43 µM); pKa ([18]; Titratable groups): 9.7; pKa [18, 21]: 8
CCC1OC(=O)CC(O)C(C)C(OC2OC(C)C(O)C(N(C)C)C2O)C(CCN2CCCC(C(=O)N(CC)CC)C2)CC(C)C(=O)C=CC(C)=CC1COC1OC(C)C(O)C(OC)C1OC (centres unmarked) [Compound D15, 20-DH-DO-20-[3-(N,N-diethylcarbamoyl)piperidin-1-yl]desmycosin]	2 (≈ 2.13 µM)	2 (≈ 2.13 µM)	4 (≈ 4.25 µM)	2 (≈ 2.13 µM)	2 (≈ 2.13 µM)	1 (≈ 1.06 µM)	0.5 (≈ 0.532 µM)	1 (≈ 1.06 µM)	32 (≈ 34 µM)	32 (≈ 34 µM)	32 (≈ 34 µM)	32 (≈ 34 µM)	> 128	> 128	64 (≈ 68.1 µM)	32 (≈ 34 µM)	3.12 (≈ 3.32 µM)	3.12 (≈ 3.32 µM)	> 50	1.56 (≈ 1.66 µM)	MIC [14]: 25 µg/mL (≈ 26.6 µM); MIC [15]: 12.5 µg/mL (≈ 13.3 µM); MIC [16]: 12.5 µg/mL (≈ 13.3 µM); MIC (Staphylococcus aureus): 6.25 µg/mL (≈ 6.65 µM); MIC (Streptococcus sp. 19F): 12.5 µg/mL (≈ 13.3 µM); pKa ([18]; Titratable groups): 8.6; pKa [18, 21]: 7.4
